Measured values reported in publication PMC7734281, “Functionalized Oxoindolin Hydrazine Carbothioamide Derivatives as Highly Potent Inhibitors of Nucleoside Triphosphate Diphosphohydrolases” (Frontiers in Pharmacology, 2020).

Tests used:
Format in all cases: biochemical
h-NTPDase1 = biological target: T1, h-NTPDase1 (Homo sapiens, UniProt P49961); assay: h-NTPDase1 inhibition, malachite green assay; conditions: for inhibition at 100 µM / Ki / IC50: human NTPDase1; for inhibition at 100 µM: compound 100 µM; for IC50: ATP 100 µM substrate, mean ± SEM of three independent experiments
T1 construct: made in house; host or cells: COS-7 cells, transient transfection; crude protein extract after sonication
T1 sequence (P49961 1-510): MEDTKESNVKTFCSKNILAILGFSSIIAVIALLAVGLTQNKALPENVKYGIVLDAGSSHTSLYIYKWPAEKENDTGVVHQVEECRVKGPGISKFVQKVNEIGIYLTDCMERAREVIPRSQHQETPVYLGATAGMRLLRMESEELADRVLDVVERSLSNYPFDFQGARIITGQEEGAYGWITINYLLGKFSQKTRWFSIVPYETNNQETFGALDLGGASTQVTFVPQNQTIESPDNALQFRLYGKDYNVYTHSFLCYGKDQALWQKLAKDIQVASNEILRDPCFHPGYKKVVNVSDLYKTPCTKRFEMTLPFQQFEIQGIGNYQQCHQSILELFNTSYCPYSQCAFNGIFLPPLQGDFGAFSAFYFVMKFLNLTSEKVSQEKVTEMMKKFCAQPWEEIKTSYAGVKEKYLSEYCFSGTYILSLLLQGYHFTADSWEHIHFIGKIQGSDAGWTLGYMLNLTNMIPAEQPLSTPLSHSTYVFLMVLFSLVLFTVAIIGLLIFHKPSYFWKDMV
Description: (§1) COS-7 cells were transfected with plasmids expressing human or mouse NTPDases1, -2, -3, and -8 as previously described ([Levesque et al., 2007]; [Lecka et al., 2014]) Briefly, the confluent cells were transferred to Dulbecco’s Modified Eagle’s Medium containing no fetal bovine serum. Then, these cells were incubated with plasmid DNA (6 µg) and Lipofectamine reagent (24 µl) at 37°C. After 5 h, transfection was terminated with the addition of an equal volume of DMEM/F-12 (supplemented with 20% FBS) and cells were collected by harvesting after 40–72 h.
(§2) To prepare protein extracts, transfected COS-7 cells were washed three times with tris-saline buffer while temperature was maintained at 4°C. Then cells were scraped and resuspended in harvesting buffer containing 95 mM NaCl, 45 mM tris and 0.1 mM phenylmethylsulfonyl fluoride (pH 7.5). Cells were again washed twice by centrifugation for 5 min at 300 × g at 4°C and then resuspended in harvesting buffer (supplemented with 10 μg ml aprotinin). Following sonication, cellular debris was isolated by 10 min centrifugation at 300 g at 4°C. Subsequently, supernatant was removed very carefully and protein concentration was determined by using Bradford microplate assay while using the bovine serum albumin as a standard ([Bradford, 1976]).
(§3) The inhibitory effects of synthesized compounds on h-NTPDase1, -2, -3, and -8 were determined as described previously, although with slight modifications ([Martín-Satué et al., 2009]). Assay was conducted in a reaction medium containing 50 mM tris-HCl and 5 mM CaCl2 (pH 7.4). All the test compounds were dissolved in dimethyl sulfoxide (DMSO, 10%) and initially screened at a concentration of 100 µM. A reaction mixture containing 55 µl of assay buffer, 10 µl of test compound solution and 10 µl of h-NTPDase1 (58 ng/well) or h-NTPDase2 (79 ng/well) or h-NTPDase3 (163 ng/well) or h-NTPDase8 (66 ng/well) was incubated at 37°C for 10 min. Following the incubation, a 10 µl solution of adenosine triphosphate (ATP, 100 µm) was added as substrate and reaction mixture was again incubated for 15 min at 37°C. The reaction was stopped by adding malachite green reagent (15 µl) and placed at room temperature for 4 to 6 min. Finally, absorbance was measured at 630 nm by using Omega FLUOstar microplate reader (BMG Labtech, Ortenberg, Germany) and % inhibitions were calculated. For compounds showing more than 50% inhibition of any isozyme, dose response curves were generated and their IC50 values were determined. Three separate enzyme inhibition assays were carried out in triplicate and dose-response curve were generated by using PRISM 5.0 (GraphPad, San Diego, United States).

m-NTPDase2 = biological target: T2, m-NTPDase2 (Mus musculus, UniProt O55026); assay: m-NTPDase2 inhibition, malachite green assay; conditions: for inhibition at 100 µM: compound 100 µM; for IC50: mean ± SEM of three independent experiments
T2 construct: made in house; host or cells: COS-7 cells, transient transfection; crude protein extract after sonication
T2 sequence (O55026 1-495): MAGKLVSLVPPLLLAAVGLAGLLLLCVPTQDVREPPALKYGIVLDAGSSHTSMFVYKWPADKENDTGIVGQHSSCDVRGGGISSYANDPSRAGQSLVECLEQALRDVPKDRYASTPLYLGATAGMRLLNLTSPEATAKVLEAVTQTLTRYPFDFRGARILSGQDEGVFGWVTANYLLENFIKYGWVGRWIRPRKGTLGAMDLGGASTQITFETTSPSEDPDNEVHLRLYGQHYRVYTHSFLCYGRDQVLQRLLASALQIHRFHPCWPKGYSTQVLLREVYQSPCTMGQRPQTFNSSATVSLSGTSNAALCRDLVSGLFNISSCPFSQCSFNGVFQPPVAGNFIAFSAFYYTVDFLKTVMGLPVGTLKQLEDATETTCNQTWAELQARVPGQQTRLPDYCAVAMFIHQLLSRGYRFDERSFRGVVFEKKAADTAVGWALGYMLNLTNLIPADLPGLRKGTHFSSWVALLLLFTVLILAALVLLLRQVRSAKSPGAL
Description: as §1, §2, §3
(§4) Same procedure was adopted to determine the inhibitory effects of compounds on mouse NTPDases (m-NTPDases). However, the amount of protein used was as follows: m-NTPDase1 (82 ng/well), m-NTPDase2 (57 ng/well), m-NTPDase3 (110 ng/well) and m-NTPDase8 (79 ng/well)

m-NTPDase8 = biological target: T3, m-NTPDase8 (Mus musculus, UniProt Q8K0L2); assay: m-NTPDase8 inhibition, malachite green assay; conditions: for inhibition at 100 µM: compound 100 µM; for IC50: mean ± SEM of three independent experiments
T3 construct: made in house; host or cells: COS-7 cells, transient transfection; crude protein extract after sonication
T3 sequence (Q8K0L2 1-497): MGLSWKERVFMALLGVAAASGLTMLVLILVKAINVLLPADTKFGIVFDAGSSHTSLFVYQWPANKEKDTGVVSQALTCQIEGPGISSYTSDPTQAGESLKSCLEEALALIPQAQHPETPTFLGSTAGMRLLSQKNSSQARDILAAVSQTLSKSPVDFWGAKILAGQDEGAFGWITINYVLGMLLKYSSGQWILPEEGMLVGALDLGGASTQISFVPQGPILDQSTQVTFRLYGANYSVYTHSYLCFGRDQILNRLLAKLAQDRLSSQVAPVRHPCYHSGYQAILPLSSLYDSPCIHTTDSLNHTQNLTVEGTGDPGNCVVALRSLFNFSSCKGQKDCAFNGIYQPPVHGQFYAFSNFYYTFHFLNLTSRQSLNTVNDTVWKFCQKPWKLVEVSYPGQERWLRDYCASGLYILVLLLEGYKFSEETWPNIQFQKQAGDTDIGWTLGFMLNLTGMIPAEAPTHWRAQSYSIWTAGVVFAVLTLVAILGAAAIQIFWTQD
Description: as §1, §2, §3, §4

Structure (SMILES)	inhibition at 100 µM (h-NTPDase1)	inhibition at 100 µM (m-NTPDase2)	inhibition at 100 µM (m-NTPDase8)	Ki (h-NTPDase1)	IC50 (h-NTPDase1)	Ki (m-NTPDase2)	IC50 (m-NTPDase2)	IC50 (m-NTPDase8)	Ki (m-NTPDase8)	Mode of inhibition of h-NTPDase1 (h-NTPDase1; Lineweaver-Burk plot)
O=C1Nc2ccccc2/C1=N/NC(=S)Nc1ccccc1 [8a, (Z)-2-(2-oxoindolin-3-ylidene)-N-phenylhydrazine-1-carbothioamide]	45%	42%	28%	–	–	–	–	–	–	–
O=C1Nc2ccccc2/C1=N/NC(=S)Nc1ccc([N+](=O)[O-])cc1 [8b, (Z)-N-(4-nitrophenyl)-2-(2-oxoindolin-3-ylidene)hydrazine-1-carbothioamide]	–	31%	30%	0.04 µM	0.29 ± 0.02 µM	–	–	–	–	–
O=C1Nc2ccccc2/C1=N/NC(=S)Nc1ccc(Cl)cc1 [8c, (Z)-N-(4-chlorophenyl)-2-(2-oxoindolin-3-ylidene)hydrazine-1-carbothioamide]	–	36%	36%	0.03 µM	0.23 ± 0.01 µM	–	–	–	–	–
O=C1Nc2ccccc2/C1=N/NC(=S)NCc1ccccc1 [8f, (Z)-N-benzyl-2-(2-oxoindolin-3-ylidene)hydrazine-1-carbothioamide]	–	34%	38%	0.03 µM	0.24 ± 0.01 µM	–	–	–	–	–
O=C1Nc2ccccc2/C1=N/NC(=S)Nc1ccc(F)cc1 [8d, (Z)-N-(4-fluorophenyl)-2-(2-oxoindolin-3-ylidene)hydrazine-1-carbothioamide]	49.1%	27%	–	–	–	–	–	1.45 ± 0.12 µM	0.17 µM	–
COc1cccc(NC(=S)N/N=C2\C(=O)Nc3ccccc32)c1 [8e, (Z)-N-(3-methoxyphenyl)-2-(2-oxoindolin-3-ylidene)hydrazine-1-carbothioamide]	–	29%	–	0.15 µM	0.15 ± 0.009 µM	–	–	3.8 ± 0.21 µM	0.44 µM	non-competitive
Cc1ccc(NC(=S)N/N=C2\C(=O)Nc3ccccc32)cc1 [8h, (Z)-2-(2-oxoindolin-3-ylidene)-N-(p-tolyl)hydrazine-1-carbothioamide]	49%	31%	28%	–	–	–	–	–	–	–
O=C1Nc2ccccc2/C1=N/NC(=S)Nc1cccc(Cl)c1 [8g, (Z)-N-(3-chlorophenyl)-2-(2-oxoindolin-3-ylidene)hydrazine-1-carbothioamide]	28%	36%	36%	–	–	–	–	–	–	–

The remaining lines, values ahead:

inhibition at 100 µM (h-NTPDase1)	inhibition at 100 µM (m-NTPDase2)	inhibition at 100 µM (m-NTPDase8)	Ki (h-NTPDase1)	IC50 (h-NTPDase1)	Ki (m-NTPDase2)	IC50 (m-NTPDase2)	IC50 (m-NTPDase8)	Ki (m-NTPDase8)	Mode of inhibition of h-NTPDase1 (h-NTPDase1; Lineweaver-Burk plot)	Structure (SMILES)
–	–	13%	0.04 µM	0.3 ± 0.03 µM	0.05 µM	0.2 ± 0.01 µM	–	–	–	O=C1Nc2ccccc2/C1=N/NC(=S)Nc1c(F)cccc1F [8l, (Z)-N-(2,6-difluorophenyl)-2-(2-oxoindolin-3-ylidene)hydrazine-1-carbothioamide]
–	27%	32%	0.02 µM	0.15 ± 0.01 µM	–	–	–	–	–	COc1ccc(OC)c(NC(=S)N/N=C2\C(=O)Nc3ccccc32)c1 [8j, (Z)-N-(2,5-dimethoxyphenyl)-2-(2-oxoindolin-3-ylidene)hydrazine-1-carbothioamide]
–	–	–	2.33 µM	16.1 ± 1.02 µM	5.67 µM	21 ± 2 µM	> 100 µM	–	–	Cc1ccc(C(=O)Nc2ccc(S(=O)(=O)O)c3cc(S(=O)(=O)O)cc(S(=O)(=O)O)c23)cc1NC(=O)c1cccc(NC(=O)Nc2cccc(C(=O)Nc3cc(C(=O)Nc4ccc(S(=O)(=O)O)c5cc(S(=O)(=O)O)cc(S(=O)(=O)O)c45)ccc3C)c2)c1 [Suramin, reference compound]
44%	29%	24%	–	–	–	–	–	–	–	COc1ccc(NC(=S)NNC2=c3ccccc3=NC2=O)cc1 [8k, (Z)-N-(4-methoxyphenyl)-2-(2-oxoindolin-3-ylidene)hydrazine-1-carbothioamide]
–	–	35%	0.38 µM	2.6 ± 0.02 µM	0.41 µM	1.5 ± 0.11 µM	–	–	–	CCNC(=S)N/N=C1\C(=O)Nc2ccccc21 [8m, (Z)-N-ethyl-2-(2-oxoindolin-3-ylidene)hydrazine-1-carbothioamide]
–	–	26%	0.24 µM	1.63 ± 0.15 µM	0.04 µM	0.15 ± 0.01 µM	–	–	–	Cc1cccc(C)c1NC(=S)N/N=C1\C(=O)Nc2ccccc21 [8i, (Z)-N-(2,6-dimethylphenyl)-2-(2-oxoindolin-3-ylidene)hydrazine-1-carbothioamide]
